Results reported in ChEMBL document CHEMBL4304741, “Modification and Biological Evaluation of a Series of 1,5-Diaryl-1,2,4-triazole Compounds as Novel Agents against Pancreatic Cancer Metastasis through Targeting Myoferlin” (J Med Chem, 2019).
Calls of active or inactive are those of the source. The rule behind the calls is not given here.

Tests used:
[1] = tested on: PANC-1; test: Antiinvasive activity against human PANC1 cells measured after 18 hrs in presence of mitomycin C using crystal violet staining by inverted microscopy-based matrigel coated transwell assay; format: functional, cell-based; conditions: PANC-1, 18 h
[2] = tested on: MIA PaCa-2; test: Antimigratory activity against human MIAPaCa2 cells measured after 24 hrs in presence of mitomycin C using crystal violet staining by inverted microscopy-based transwell assay; format: functional, cell-based
[3] = tested on: Capan-2; test: Cytotoxicity against human Capan2 cells assessed as reduction in cell viability measured after 48 hrs by MTS assay; format: cell-based; conditions: Capan-2, 48 h
[4] = Cytotoxicity against human HPDE6c7 cells assessed as reduction in cell viability measured after 48 hrs by MTS assay; format: cell-based; conditions: HPDE6c7, 48 h
[5] = target: T1, Myoferlin (Homo sapiens, UniProt Q9NZM1); test: Reversible binding affinity to recombinant human GST-tagged MYOF C2 domain (3445 to 3912 residues) expressed in Escherichia coli BL21 (DE3) by surface plasmon resonance analysis
T1 sequence (Q9NZM1 whole entry, the tested form may be a part): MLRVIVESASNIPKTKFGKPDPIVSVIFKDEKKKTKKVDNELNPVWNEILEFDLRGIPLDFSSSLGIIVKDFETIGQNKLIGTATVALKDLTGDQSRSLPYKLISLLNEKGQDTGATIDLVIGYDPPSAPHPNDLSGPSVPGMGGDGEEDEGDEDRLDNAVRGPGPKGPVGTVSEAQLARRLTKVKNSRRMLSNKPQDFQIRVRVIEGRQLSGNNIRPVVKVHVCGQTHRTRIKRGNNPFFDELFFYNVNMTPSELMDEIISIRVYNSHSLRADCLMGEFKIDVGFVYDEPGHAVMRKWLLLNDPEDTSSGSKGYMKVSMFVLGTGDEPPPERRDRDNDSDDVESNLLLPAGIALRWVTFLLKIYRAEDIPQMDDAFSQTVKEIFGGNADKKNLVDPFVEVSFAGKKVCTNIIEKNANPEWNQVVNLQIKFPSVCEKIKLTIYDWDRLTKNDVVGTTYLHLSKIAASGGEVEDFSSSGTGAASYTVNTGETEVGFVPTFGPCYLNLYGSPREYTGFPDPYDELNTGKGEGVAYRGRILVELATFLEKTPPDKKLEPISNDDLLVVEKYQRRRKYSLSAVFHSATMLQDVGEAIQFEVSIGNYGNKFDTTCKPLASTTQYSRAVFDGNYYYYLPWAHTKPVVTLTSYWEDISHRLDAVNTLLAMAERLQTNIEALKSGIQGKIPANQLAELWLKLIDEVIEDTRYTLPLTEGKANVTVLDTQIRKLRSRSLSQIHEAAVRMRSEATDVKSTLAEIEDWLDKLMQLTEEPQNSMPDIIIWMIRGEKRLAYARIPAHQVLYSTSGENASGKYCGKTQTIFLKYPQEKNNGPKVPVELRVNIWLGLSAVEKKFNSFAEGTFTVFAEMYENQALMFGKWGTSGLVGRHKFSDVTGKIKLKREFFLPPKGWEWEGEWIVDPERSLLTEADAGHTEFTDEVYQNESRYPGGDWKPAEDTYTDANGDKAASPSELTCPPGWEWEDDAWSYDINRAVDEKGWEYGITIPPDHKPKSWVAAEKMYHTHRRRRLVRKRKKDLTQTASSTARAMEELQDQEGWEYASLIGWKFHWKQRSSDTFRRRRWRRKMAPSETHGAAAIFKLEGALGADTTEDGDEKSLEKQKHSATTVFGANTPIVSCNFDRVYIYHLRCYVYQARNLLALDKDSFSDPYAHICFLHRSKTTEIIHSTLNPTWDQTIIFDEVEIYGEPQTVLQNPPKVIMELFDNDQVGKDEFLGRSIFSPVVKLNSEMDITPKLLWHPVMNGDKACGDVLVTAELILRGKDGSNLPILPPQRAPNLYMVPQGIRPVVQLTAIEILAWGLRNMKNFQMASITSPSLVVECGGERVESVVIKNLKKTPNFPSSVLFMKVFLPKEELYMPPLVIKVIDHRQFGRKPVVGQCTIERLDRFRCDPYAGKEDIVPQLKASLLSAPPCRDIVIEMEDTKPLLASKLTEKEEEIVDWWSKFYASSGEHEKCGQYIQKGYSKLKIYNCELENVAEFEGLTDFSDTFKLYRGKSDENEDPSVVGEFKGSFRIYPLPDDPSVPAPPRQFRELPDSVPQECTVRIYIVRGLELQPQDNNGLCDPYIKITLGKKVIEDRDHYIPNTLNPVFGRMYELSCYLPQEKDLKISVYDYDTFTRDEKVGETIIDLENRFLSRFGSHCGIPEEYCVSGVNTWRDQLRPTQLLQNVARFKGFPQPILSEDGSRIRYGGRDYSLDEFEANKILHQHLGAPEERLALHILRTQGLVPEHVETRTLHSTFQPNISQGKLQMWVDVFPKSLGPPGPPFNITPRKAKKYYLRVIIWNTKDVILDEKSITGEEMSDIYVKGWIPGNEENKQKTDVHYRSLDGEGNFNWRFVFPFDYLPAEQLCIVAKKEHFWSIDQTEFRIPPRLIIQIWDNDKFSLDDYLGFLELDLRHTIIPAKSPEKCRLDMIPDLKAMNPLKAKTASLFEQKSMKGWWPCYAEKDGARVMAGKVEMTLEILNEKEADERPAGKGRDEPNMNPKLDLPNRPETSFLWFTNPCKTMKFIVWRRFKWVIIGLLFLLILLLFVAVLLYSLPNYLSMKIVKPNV

[6] = tested on: PANC-1; test: Antimigratory activity against MYOF-knockout human PANC1 cells measured after 18 hrs in presence of mitomycin C using crystal violet staining by inverted microscopy-based transwell assay; format: functional, cell-based
[7] = target: Cytochrome P450 2D6 (Homo sapiens, UniProt P10635); test: Inhibition of CYP2D6 in human liver microsomes using tolbutamide as substrate preincubated for 5 mins followed by NADPH-generating system addition and measured after 20 mins by LC-MS/MS analysis
Cytochrome P450 2D6, sequence (P10635 whole entry): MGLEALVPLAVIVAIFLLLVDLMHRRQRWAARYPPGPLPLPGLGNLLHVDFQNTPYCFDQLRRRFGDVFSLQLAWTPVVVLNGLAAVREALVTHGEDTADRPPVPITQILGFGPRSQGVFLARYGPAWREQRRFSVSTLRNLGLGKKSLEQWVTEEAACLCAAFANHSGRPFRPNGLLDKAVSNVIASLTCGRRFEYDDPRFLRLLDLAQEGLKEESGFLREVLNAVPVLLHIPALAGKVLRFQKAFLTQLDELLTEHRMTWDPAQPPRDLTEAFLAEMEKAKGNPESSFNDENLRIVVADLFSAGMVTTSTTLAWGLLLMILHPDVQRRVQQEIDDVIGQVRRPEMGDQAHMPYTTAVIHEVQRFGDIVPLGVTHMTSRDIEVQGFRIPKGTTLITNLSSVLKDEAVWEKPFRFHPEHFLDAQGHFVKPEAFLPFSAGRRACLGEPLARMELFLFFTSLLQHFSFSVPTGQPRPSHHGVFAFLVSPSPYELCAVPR

[8] = target: Cytochrome P450 2E1 (Homo sapiens, UniProt P05181); test: Inhibition of CYP2E1 in human liver microsomes using chlorzoxazone as substrate preincubated for 5 mins followed by NADPH-generating system addition and measured after 20 mins by LC-MS/MS analysis
Cytochrome P450 2E1, sequence (P05181 whole entry): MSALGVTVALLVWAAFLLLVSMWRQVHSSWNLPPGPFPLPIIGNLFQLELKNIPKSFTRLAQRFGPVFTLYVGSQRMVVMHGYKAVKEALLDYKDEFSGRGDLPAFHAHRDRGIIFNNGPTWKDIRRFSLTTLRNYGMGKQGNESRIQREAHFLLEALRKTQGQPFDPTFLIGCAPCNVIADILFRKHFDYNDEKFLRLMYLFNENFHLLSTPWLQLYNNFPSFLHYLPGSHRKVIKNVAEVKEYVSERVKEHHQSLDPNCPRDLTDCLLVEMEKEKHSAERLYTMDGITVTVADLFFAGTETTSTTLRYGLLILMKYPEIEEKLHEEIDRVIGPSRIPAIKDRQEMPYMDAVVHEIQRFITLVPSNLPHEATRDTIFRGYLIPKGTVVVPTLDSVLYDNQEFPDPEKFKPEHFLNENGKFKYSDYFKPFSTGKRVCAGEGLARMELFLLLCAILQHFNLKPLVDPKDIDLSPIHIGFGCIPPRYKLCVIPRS

[9] = tested on: PANC-1; test: Antimetastatic activity against human PANC1 cells harboring luciferase reporter gene xenografted in Balb/c nude mouse administered intraperitoneally once daily measured every 10 days by bioluminescence imaging analysis; format: functional, cell-based
[10] = tested on: PANC-1; test: Antimetastatic activity against human PANC1 cells harboring luciferase reporter gene xenografted in Balb/c nude mouse assessed as reduction in lung metastasis burden by measuring reduction in luminescence at 50 mg/kg/day, ip measured every 10 days by bioluminescence imaging analysis relative to control; format: functional
[11] = tested on: PANC-1; test: Antimetastatic activity against human PANC1 cells harboring luciferase reporter gene xenografted in Balb/c nude mouse assessed as mouse survival at 25 mg/kg/day, ip (reference value: 25%); format: functional; conditions: PANC-1, ip
[12] = Toxicity in Balb/c nude mouse xenografted with PANC1 cells assessed as body weight loss at 25 to 50 mg/kg/day, ip; format: organism-based; conditions: in vivo
[13] = Toxicity in Balb/c nude mouse xenografted with PANC1 cells assessed as pathological changes in liver at 25 to 50 mg/kg/day, ip by H and E staining-based microscopic analysis; format: organism-based; conditions: in vivo
[14] = Toxicity in Balb/c nude mouse xenografted with PANC1 cells assessed as pathological changes in kidney at 25 to 50 mg/kg/day, ip by H and E staining-based microscopic analysis; format: organism-based; conditions: in vivo
[15] = target: T1, Myoferlin; test: Inhibition of MYOF in human PANC1 cells assessed as reversal of epithelial-mesenchymal transition by measuring up regulation of E-cadherin expression up to 400 nM by Western blot analysis; format: cell-based
[16] = target: T1, Myoferlin; test: Inhibition of MYOF in human PANC1 cells assessed as reversal of epithelial-mesenchymal transition by measuring down regulation of fibronectin expression up to 400 nM by Western blot analysis; format: cell-based
[17] = target: T1, Myoferlin; test: Inhibition of MYOF in human PANC1 cells assessed as reduction in MMP1 secretion measured after 24 hrs by SDS-PAGE analysis; format: cell-based
[18] = target: T1, Myoferlin; test: Inhibition of MYOF in human PANC1 cells assessed as reduction in MMP2 secretion measured after 24 hrs by SDS-PAGE analysis; format: cell-based
[19] = target: T1, Myoferlin; test: Inhibition of MYOF in human PANC1 cells assessed as reduction in VEGFR2 level by Western blot analysis; format: cell-based
[20] = target: T1, Myoferlin; test: Inhibition of MYOF in human PANC1 cells assessed as increase in EGF-stimulated EGFR phosphorylation by Western blot analysis; format: cell-based
[21] = tested on: PANC-1; test: Effect on E-cadherin expression in MYOF-knockout human PANC1 cells up to 400 nM by Western blot analysis; format: functional, cell-based
[22] = tested on: PANC-1; test: Effect on MMP1 secretion in MYOF-knockout human PANC1 cells up to 400 nM by Western blot analysis; format: functional, cell-based
[23] = target: Epidermal growth factor receptor (Homo sapiens) (UniProt P00533); test: Effect on EGF-stimulated EGFR phosphorylation in MYOF-knockout human PANC1 cells at 400 nM by Western blot analysis
Epidermal growth factor receptor (Homo sapiens), sequence (P00533 whole entry): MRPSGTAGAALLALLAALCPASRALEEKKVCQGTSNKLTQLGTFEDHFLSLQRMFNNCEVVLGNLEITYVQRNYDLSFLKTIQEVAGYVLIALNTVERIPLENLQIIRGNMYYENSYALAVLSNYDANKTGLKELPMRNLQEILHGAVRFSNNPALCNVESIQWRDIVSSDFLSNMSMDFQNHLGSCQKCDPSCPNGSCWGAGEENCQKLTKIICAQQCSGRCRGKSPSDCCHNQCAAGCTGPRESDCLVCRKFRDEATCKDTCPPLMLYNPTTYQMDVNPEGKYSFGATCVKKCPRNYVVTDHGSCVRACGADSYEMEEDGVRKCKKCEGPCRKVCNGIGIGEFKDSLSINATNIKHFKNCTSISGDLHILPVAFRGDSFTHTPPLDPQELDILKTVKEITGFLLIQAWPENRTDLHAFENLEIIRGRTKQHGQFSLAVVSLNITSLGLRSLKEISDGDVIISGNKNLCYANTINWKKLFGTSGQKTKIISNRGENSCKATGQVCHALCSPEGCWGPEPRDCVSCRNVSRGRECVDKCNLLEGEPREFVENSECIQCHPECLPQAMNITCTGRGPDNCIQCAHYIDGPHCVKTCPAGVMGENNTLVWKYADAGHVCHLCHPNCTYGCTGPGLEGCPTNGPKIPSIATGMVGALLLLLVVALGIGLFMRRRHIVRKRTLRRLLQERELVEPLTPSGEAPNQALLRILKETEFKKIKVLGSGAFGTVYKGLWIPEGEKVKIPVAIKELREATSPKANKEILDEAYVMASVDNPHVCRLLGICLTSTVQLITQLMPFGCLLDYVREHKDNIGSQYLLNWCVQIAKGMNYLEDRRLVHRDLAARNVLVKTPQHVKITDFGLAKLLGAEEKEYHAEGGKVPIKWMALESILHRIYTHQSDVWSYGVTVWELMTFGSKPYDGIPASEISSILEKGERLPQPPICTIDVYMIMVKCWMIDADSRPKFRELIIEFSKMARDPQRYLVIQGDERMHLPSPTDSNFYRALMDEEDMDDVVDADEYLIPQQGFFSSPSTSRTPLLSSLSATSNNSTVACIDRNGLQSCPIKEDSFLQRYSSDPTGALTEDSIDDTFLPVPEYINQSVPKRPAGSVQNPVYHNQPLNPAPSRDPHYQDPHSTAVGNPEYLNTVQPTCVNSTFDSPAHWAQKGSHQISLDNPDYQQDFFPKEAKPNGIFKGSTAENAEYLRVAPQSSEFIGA

[24] = tested on: PANC-1; test: Effect on EGFR expression in MYOF-knockout human PANC1 cells up to 400 nM by Western blot analysis; format: functional, cell-based
[25] = tested on: PANC-1; test: Effect on myosin 2A expression in human PANC1 cells up to 400 nM by Western blot analysis; format: functional, cell-based

## CCc1nc(-c2ncc(OC)cn2)n(-c2cccc(C(=O)NCCCCc3ccccc3)c2)n1
[1]
  IC50: 0.12 µM
[2]
  Activity: Dose-dependent effect
[3]
  IC50: 2.85 µM
[4]
  IC50: 14.6 µM
[5]
  Activity: Dose-dependent effect
  Kd: 0.094 µM
[6]
  Activity: inactive
[7]
  IC50: 49.6 µM
[8]
  IC50: > 50 µM
[9]
  Activity: Dose-dependent effect
[10]
  fold change (FC): 5
[11]
  survival at 25 mg/kg/day: 75%
[12]
  Activity: Non-Toxic
[13]
  Activity: Non-Toxic
[14]
  Activity: Non-Toxic
[15]
  inhibition: Active
[16]
  inhibition: Dose-dependent effect
[17]
  inhibition: Dose-dependent effect
[18]
  inhibition: Dose-dependent effect
[19]
  inhibition: Dose-dependent effect
[20]
  inhibition: Dose-dependent effect
[21]
  Activity: inactive
[22]
  Activity: inactive
[23]
  Activity: inactive
[24]
  Activity: inactive
[25]
  Activity: inactive
